Experimental data taken from ChEMBL document CHEMBL4152339, “Design and synthesis of novel 1H-tetrazol-5-amine based potent antimicrobial agents: DNA topoisomerase IV and gyrase affinity evaluation supported by molecular docking studies” (Eur J Med Chem, 2018).
≈ marks a conversion by molar mass, not a printed value.

Experiments:
Staphylococcus aureus [1] = assay: Antibacterial activity against Staphylococcus aureus NCTC 4163 after 18 hrs by CLSI disc diffusion method; type: functional; conditions: NCTC 4163, 18 h
Staphylococcus aureus [2] = assay: Antibacterial activity against Staphylococcus aureus ATCC 25923 after 18 hrs by CLSI disc diffusion method; type: functional; conditions: ATCC 25923, 18 h
Staphylococcus aureus [3] = assay: Antibacterial activity against Staphylococcus aureus ATCC 6538 after 18 hrs by CLSI disc diffusion method; type: functional; conditions: ATCC 6538, 18 h
[4] = tested on: Staphylococcus epidermidis; assay: Antibacterial activity against Staphylococcus epidermidis ATCC 12228 after 18 hrs by CLSI disc diffusion method; type: functional; conditions: ATCC 12228, 18 h
[5] = tested on: Staphylococcus epidermidis; assay: Antibacterial activity against Staphylococcus epidermidis ATCC 35984 after 18 hrs by CLSI […] method; type: functional; conditions: ATCC 35984, 18 h
Bacillus spizizenii = assay: Antibacterial activity against Bacillus subtilis ATCC 6633 after 18 hrs by CLSI disc diffusion method; type: functional; conditions: ATCC 6633, 18 h
Bacillus cereus = assay: Antibacterial activity against Bacillus cereus ATCC 11778 after 18 hrs by CLSI disc diffusion method; type: functional; conditions: ATCC 11778, 18 h
Enterococcus hirae = assay: Antibacterial activity against Enterococcus hirae ATCC 10541 after 18 hrs by CLSI disc diffusion method; type: functional; conditions: ATCC 10541, 18 h
Enterococcus faecalis = assay: Antibacterial activity against Enterococcus faecalis ATCC 29212 after 18 hrs by CLSI disc diffusion method; type: functional; conditions: ATCC 29212, 18 h
Micrococcus luteus [6] = assay: Antibacterial activity against Micrococcus luteus ATCC 10240 after 18 hrs by CLSI disc diffusion method; type: functional; conditions: ATCC 10240, 18 h
Micrococcus luteus [7] = assay: Antibacterial activity against Micrococcus luteus ATCC 9341 after 18 hrs by CLSI disc diffusion method; type: functional; conditions: ATCC 9341, 18 h
Escherichia coli [8] = assay: Antibacterial activity against Escherichia coli ATCC 10538 after 18 hrs by CLSI disc diffusion method; type: functional; conditions: ATCC 10538, 18 h
Proteus vulgaris = assay: Antibacterial activity against Proteus vulgaris NCTC 4635 after 18 hrs by CLSI disc diffusion method; type: functional; conditions: NCTC 4635, 18 h
Pseudomonas aeruginosa [9] = assay: Antibacterial activity against Pseudomonas aeruginosa ATCC 15442 after 18 hrs by CLSI disc diffusion method; type: functional; conditions: ATCC 15442, 18 h
Pseudomonas aeruginosa [10] = assay: Antibacterial activity against Pseudomonas aeruginosa ATCC 27853 after 18 hrs by CLSI disc diffusion method; type: functional; conditions: ATCC 27853, 18 h
[11] = tested on: Bordetella bronchiseptica; assay: Antibacterial activity against Bordetella bronchiseptica ATCC 4617 after 18 hrs by CLSI disc diffusion method; type: functional; conditions: ATCC 4617, 18 h
Staphylococcus aureus [12] = assay: Antibacterial activity against Staphylococcus aureus 495 after 18 hrs by CLSI disc diffusion method; type: functional; conditions: Staphylococcus aureus, 495, 18 h
Staphylococcus aureus [13] = assay: Antibacterial activity against Staphylococcus aureus 496 after 18 hrs by CLSI disc diffusion method; type: functional; conditions: Staphylococcus aureus, 496, 18 h
Staphylococcus aureus [14] = assay: Antibacterial activity against Staphylococcus aureus 497 after 18 hrs by CLSI disc diffusion method; type: functional; conditions: Staphylococcus aureus, 497, 18 h
Staphylococcus aureus [15] = assay: Antibacterial activity against Staphylococcus aureus 498 after 18 hrs by CLSI disc diffusion method; type: functional; conditions: Staphylococcus aureus, 498, 18 h
Staphylococcus aureus [16] = assay: Antibacterial activity against Staphylococcus aureus 537 after 18 hrs by CLSI disc diffusion method; type: functional; conditions: Staphylococcus aureus, 537, 18 h
Staphylococcus aureus [17] = assay: Antibacterial activity against Staphylococcus aureus 572 after 18 hrs by CLSI disc diffusion method; type: functional; conditions: Staphylococcus aureus, 572, 18 h
Staphylococcus aureus [18] = assay: Antibacterial activity against Staphylococcus aureus 585 after 18 hrs by CLSI disc diffusion method; type: functional; conditions: Staphylococcus aureus, 585, 18 h
Staphylococcus aureus [19] = assay: Antibacterial activity against Staphylococcus aureus 586 after 18 hrs by CLSI disc diffusion method; type: functional; conditions: Staphylococcus aureus, 586, 18 h
[20] = tested on: Staphylococcus epidermidis; assay: Antibacterial activity against Staphylococcus epidermidis 423 after 18 hrs by CLSI disc diffusion method; type: functional; conditions: Staphylococcus epidermidis, 423, 18 h
[21] = tested on: Staphylococcus epidermidis; assay: Antibacterial activity against Staphylococcus epidermidis 431 after 18 hrs by CLSI disc diffusion method; type: functional; conditions: Staphylococcus epidermidis, 431, 18 h
[22] = tested on: Staphylococcus epidermidis; assay: Antibacterial activity against Staphylococcus epidermidis 432 after 18 hrs by CLSI disc diffusion method; type: functional; conditions: Staphylococcus epidermidis, 432, 18 h
[23] = tested on: Staphylococcus epidermidis; assay: Antibacterial activity against Staphylococcus epidermidis 433 after 18 hrs by CLSI disc diffusion method; type: functional; conditions: Staphylococcus epidermidis, 433, 18 h
[24] = tested on: Staphylococcus epidermidis; assay: Antibacterial activity against Staphylococcus epidermidis 469 after 18 hrs by CLSI disc diffusion method; type: functional; conditions: Staphylococcus epidermidis, 469, 18 h
[25] = tested on: Staphylococcus epidermidis; assay: Antibacterial activity against Staphylococcus epidermidis 471 after 18 hrs by CLSI disc diffusion method; type: functional; conditions: Staphylococcus epidermidis, 471, 18 h
[26] = tested on: Staphylococcus epidermidis; assay: Antibacterial activity against Staphylococcus epidermidis 510 after 18 hrs by CLSI disc diffusion method; type: functional; conditions: Staphylococcus epidermidis, 510, 18 h
[27] = tested on: Staphylococcus epidermidis; assay: Antibacterial activity against Staphylococcus epidermidis 511 after 18 hrs by CLSI disc diffusion method; type: functional; conditions: Staphylococcus epidermidis, 511, 18 h
Pseudomonas aeruginosa [28] = assay: Antibacterial activity against Pseudomonas aeruginosa 6m after 18 hrs by CLSI disc diffusion method; type: functional
Pseudomonas aeruginosa [29] = assay: Antibacterial activity against Pseudomonas aeruginosa 7m after 18 hrs by CLSI disc diffusion method; type: functional
Pseudomonas aeruginosa [30] = assay: Antibacterial activity against Pseudomonas aeruginosa 10m after 18 hrs by CLSI disc diffusion method; type: functional
Pseudomonas aeruginosa [31] = assay: Antibacterial activity against Pseudomonas aeruginosa 11m after 18 hrs by CLSI disc diffusion method; type: functional
Pseudomonas aeruginosa [32] = assay: Antibacterial activity against Pseudomonas aeruginosa 12m after 18 hrs by CLSI disc diffusion method; type: functional
Pseudomonas aeruginosa [33] = assay: Antibacterial activity against Pseudomonas aeruginosa 16m after 18 hrs by CLSI disc diffusion method; type: functional
Pseudomonas aeruginosa [34] = assay: Antibacterial activity against Pseudomonas aeruginosa 18m after 18 hrs by CLSI disc diffusion method; type: functional
Pseudomonas aeruginosa [35] = assay: Antibacterial activity against Pseudomonas aeruginosa 31m after 18 hrs by CLSI disc diffusion method; type: functional
Escherichia coli [36] = assay: Antibacterial activity against Escherichia coli ML 5 after 18 hrs by CLSI disc diffusion method; type: functional; conditions: ML 5, 18 h
Escherichia coli [37] = assay: Antibacterial activity against Escherichia coli ML 6 after 18 hrs by CLSI disc diffusion method; type: functional; conditions: ML 6, 18 h
Escherichia coli [38] = assay: Antibacterial activity against Escherichia coli ML 8 after 18 hrs by CLSI disc diffusion method; type: functional; conditions: ML 8, 18 h
Escherichia coli [39] = assay: Antibacterial activity against Escherichia coli ML 9 after 18 hrs by CLSI disc diffusion method; type: functional; conditions: ML 9, 18 h
Escherichia coli [40] = assay: Antibacterial activity against Escherichia coli ML 12 after 18 hrs by CLSI disc diffusion method; type: functional; conditions: ML 12, 18 h
Escherichia coli [41] = assay: Antibacterial activity against Escherichia coli ML 15 after 18 hrs by CLSI disc diffusion method; type: functional; conditions: ML 15, 18 h
Escherichia coli [42] = assay: Antibacterial activity against Escherichia coli ML 16 after 18 hrs by CLSI disc diffusion method; type: functional; conditions: ML 16, 18 h
Escherichia coli [43] = assay: Antibacterial activity against Escherichia coli ML 17 after 18 hrs by CLSI disc diffusion method; type: functional; conditions: ML 17, 18 h
A549 = assay: Cytotoxicity activity against human A549 cells assessed as reduction in cell viability after 72 hrs by MTT assay; type: cell-based; conditions: A549, 72 h
HaCaT = assay: Cytotoxicity activity against human HaCaT cells assessed as reduction in cell viability after 72 hrs by MTT assay; type: cell-based
[44] = Selectivity index, ratio of IC50 for human HaCaT cells to MIC for Staphylococcus aureus NCTC 4163; type: toxicity; conditions: read-out: Selectivity Index
[45] = Selectivity index, ratio of IC50 for human HaCaT cells to MIC for Bacillus subtilis ATCC 6633; type: toxicity; conditions: read-out: Selectivity Index
[46] = Selectivity index, ratio of IC50 for human HaCaT cells to MIC for Enterococcus hirae ATCC 10541; type: toxicity; conditions: read-out: Selectivity Index
[47] = Selectivity index, ratio of IC50 for human HaCaT cells to MIC for Micrococcus luteus ATCC 10240; type: toxicity; conditions: read-out: Selectivity Index
[48] = Selectivity index, ratio of IC50 for human HaCaT cells to MIC for Escherichia coli ATCC 10538; type: toxicity; conditions: read-out: Selectivity Index
[49] = Selectivity index, ratio of IC50 for human HaCaT cells to MIC for Proteus vulgaris NCTC 4635; type: toxicity; conditions: read-out: Selectivity Index
[50] = Selectivity index, ratio of IC50 for human HaCaT cells to MIC for Bordetella bronchiseptica ATCC 4617; type: toxicity; conditions: read-out: Selectivity Index
DNA gyrase = DNA gyrase (Staphylococcus aureus, UniProt P0A0K8+P20831); assay: Inhibition of Staphylococcus aureus DNA gyrase supercoiling activity using pBR322 DNA as substrate after 30 mins by ethidium bromide staining based agarose gel electrophoresis method; type: protein-complex assay
[51] = Inhibition of Staphylococcus aureus DNA topoisomerase 4 using Kinetoplast DNA as substrate after 30 mins by ethidium bromide staining based agarose gel electrophoresis method

MIC (Staphylococcus aureus [1]): 7 µM (≈ 2.06 µg/mL)
MIC (Staphylococcus aureus [2]): 7 µM (≈ 2.06 µg/mL)
MIC (Staphylococcus aureus [3]): 7 µM (≈ 2.06 µg/mL)
MIC [4]: 7 µM (≈ 2.06 µg/mL)
MIC [5]: 3 µM (≈ 0.881 µg/mL)
MIC (Bacillus spizizenii): 3 µM (≈ 0.881 µg/mL)
MIC (Bacillus cereus): 3 µM (≈ 0.881 µg/mL)
MIC (Enterococcus hirae): 14 µM (≈ 4.11 µg/mL)
MIC (Enterococcus faecalis): 7 µM (≈ 2.06 µg/mL)
MIC (Micrococcus luteus [6]): 1 µM (≈ 0.294 µg/mL)
MIC (Micrococcus luteus [7]): 1 µM (≈ 0.294 µg/mL)
MIC (Escherichia coli [8]): 7 µM (≈ 2.06 µg/mL)
MIC (Proteus vulgaris): 1 µM (≈ 0.294 µg/mL)
MIC (Pseudomonas aeruginosa [9]): 218 µM (≈ 64 µg/mL)
MIC (Pseudomonas aeruginosa [10]): 7 µM (≈ 2.06 µg/mL)
MIC [11]: 7 µM (≈ 2.06 µg/mL)
MIC (Staphylococcus aureus [12]): 7 µM (≈ 2.06 µg/mL)
MIC (Staphylococcus aureus [13]): 7 µM (≈ 2.06 µg/mL)
MIC (Staphylococcus aureus [14]): 14 µM (≈ 4.11 µg/mL)
MIC (Staphylococcus aureus [15]): 7 µM (≈ 2.06 µg/mL)
MIC (Staphylococcus aureus [16]): 7 µM (≈ 2.06 µg/mL)
MIC (Staphylococcus aureus [17]): 14 µM (≈ 4.11 µg/mL)
MIC (Staphylococcus aureus [18]): 14 µM (≈ 4.11 µg/mL)
MIC (Staphylococcus aureus [19]): 14 µM (≈ 4.11 µg/mL)
MIC [20]: 14 µM (≈ 4.11 µg/mL)
MIC [21]: 7 µM (≈ 2.06 µg/mL)
MIC [22]: 7 µM (≈ 2.06 µg/mL)
MIC [23]: 14 µM (≈ 4.11 µg/mL)
MIC [24]: 7 µM (≈ 2.06 µg/mL)
MIC [25]: 7 µM (≈ 2.06 µg/mL)
MIC [26]: 14 µM (≈ 4.11 µg/mL)
MIC [27]: 14 µM (≈ 4.11 µg/mL)
MIC (Pseudomonas aeruginosa [28]): 7 µM (≈ 2.06 µg/mL)
MIC (Pseudomonas aeruginosa [29]): 7 µM (≈ 2.06 µg/mL)
MIC (Pseudomonas aeruginosa [30]): 27 µM (≈ 7.93 µg/mL)
MIC (Pseudomonas aeruginosa [31]): 27 µM (≈ 7.93 µg/mL)
MIC (Pseudomonas aeruginosa [32]): 7 µM (≈ 2.06 µg/mL)
MIC (Pseudomonas aeruginosa [33]): 14 µM (≈ 4.11 µg/mL)
MIC (Pseudomonas aeruginosa [34]): 14 µM (≈ 4.11 µg/mL)
MIC (Pseudomonas aeruginosa [35]): 7 µM (≈ 2.06 µg/mL)
MIC (Escherichia coli [36]): 7 µM (≈ 2.06 µg/mL)
MIC (Escherichia coli [37]): 54 µM (≈ 15.9 µg/mL)
MIC (Escherichia coli [38]): 7 µM (≈ 2.06 µg/mL)
MIC (Escherichia coli [39]): 14 µM (≈ 4.11 µg/mL)
MIC (Escherichia coli [40]): 54 µM (≈ 15.9 µg/mL)
MIC (Escherichia coli [41]): 54 µM (≈ 15.9 µg/mL)
MIC (Escherichia coli [42]): 7 µM (≈ 2.06 µg/mL)
MIC (Escherichia coli [43]): 7 µM (≈ 2.06 µg/mL)
IC50 (DNA gyrase): 3.06 µM
IC50 [51]: 2.6 µg/mL (≈ 8.85 µM)
Compound: Fc1ccc(-n2nnnc2NCc2ccco2)cc1Cl
IC50 (A549): 80 µM
IC50 (HaCaT): 84 µM
selectivity ratio [44]: 12
selectivity ratio [45]: 28
selectivity ratio [46]: 6
selectivity ratio [47]: 84
selectivity ratio [48]: 12
selectivity ratio [49]: 84
selectivity ratio [50]: 12
